Assay results: patent US10105357B2, “Indication of antibiotic drugs for preparation of cancer inhibition pharmaceutical composition” (LAUNX BIOMEDICAL CO., LTD., priority 2014, dated 2018)
Where “and” joins values, the source holds several entries; their conditions need not be identical. Equal values may be shown once. Where a name gives a salt, the structure may show the parent alone. Read-outs that look alike come from different tables or passages of the source.

Experiments:
cancer cell lines = assay: Cell viability analysis (WST-1) on cancer cell lines; assay type: cell-based, human; details: drug 10 μM, 72 hours, WST-1; Table 3
[1] = test system: HI650 (Lung Adenocarcinoma); assay: Cell viability analysis, lung cancer HI650; assay type: cell-based, human; details: Homo sapiens, NCI-H1650, 72 h
[2] = test system: A549 (Lung Adenocarcinoma); assay: Cell viability analysis, lung cancer A549; assay type: cell-based, human; details: Homo sapiens, A549, 72 h
[3] = test system: AGS (Gastric Adenocarcinoma); assay: Cell viability analysis, gastric cancer AGS; assay type: cell-based, human; details: Homo sapiens, 72 h
[4] = test system: MKN-45 (Gastric Adenocarcinoma); assay: Cell viability analysis, gastric cancer MKN-45; assay type: cell-based, human; details: Homo sapiens, MKN-45, 72 h
[5] = test system: HepG2 (Hepatocellular Carcinoma); assay: Cell viability analysis, hepatic cancer HepG2; assay type: cell-based, human; details: Homo sapiens, HepG2, 72 h
[6] = test system: Hep3B (hepatocellular carcinoma); assay: Cell viability analysis, hepatic cancer Hep3B; assay type: cell-based, human; details: Homo sapiens, Hep3B, 72 h, read-out: The results of antibiotic drug inhibiting cancer cell lines (cell viability analysis), Hep3B
[7] = test system: LoVo (Colorectal Adenocarcinoma); assay: Cell viability analysis, colon cancer LoVo; assay type: cell-based, human; details: Homo sapiens, LoVo, 72 h
[8] = test system: A375 (Amelanotic Melanoma); assay: Cell viability analysis, skin cancer A375; assay type: cell-based, human; details: Homo sapiens, A-375, 72 h
[9] = test system: BCC (basal cell carcinoma); assay: Cell viability analysis, skin cancer BCC; assay type: cell-based, human; details: Homo sapiens, 72 h, read-out: The results of antibiotic drug inhibiting cancer cell lines (cell viability analysis), BCC
[10] = test system: HeLa (Cervix Adenocarcinoma); assay: Cell viability analysis, cervical cancer HeLa; assay type: cell-based, human; details: Homo sapiens, HeLa, 72 h
[11] = test system: C-33A (Cervical carcinoma); assay: Cell viability analysis, cervical cancer C-33A; assay type: cell-based, human; details: Homo sapiens, C-33-A, 72 h, read-out: The results of antibiotic drug inhibiting cancer cell lines (cell viability analysis), C-33A
[12] = test system: PC3 (p53−) (Prostate Adenocarcinoma); assay: Cell viability analysis, prostate cancer PC3; assay type: cell-based, human; details: Homo sapiens, 72 h
T24 = assay: Cell viability analysis, bladder cancer T24; assay type: cell-based, human; details: Homo sapiens, T-24, 72 h, read-out: The results of antibiotic drug inhibiting cancer cell lines (cell viability analysis), T24
[13] = test system: MCF7 (Mammary Gland, Adenocarcinoma); assay: Cell viability analysis, breast cancer MCF7; assay type: cell-based, human; details: Homo sapiens, MCF7, 72 h
[14] = test system: MDA-MB-231 (Mammary Gland, Adenocarcinoma); assay: Cell viability analysis, breast cancer MDA-MB-231; assay type: cell-based, human; details: Homo sapiens, MDA-MB-231, 72 h, read-out: The results of antibiotic drug inhibiting cancer cell lines (cell viability analysis), MDA-MB231
BxPC-3 = assay: Cell viability analysis, pancreatic cancer BxPC-3; assay type: cell-based, human; details: Homo sapiens, BXPC-3, 72 h, read-out: The results of antibiotic drug inhibiting cancer cell lines (cell viability analysis), BxPC-3
AsPC-1 = assay: Cell viability analysis, pancreatic cancer AsPC-1; assay type: cell-based, human; details: Homo sapiens, ASPC1, 72 h, read-out: The results of antibiotic drug inhibiting cancer cell lines (cell viability analysis), AsPC-1
NIH: OVCAR-3 = assay: Cell viability analysis, ovarian cancer NIH: OVCAR-3; assay type: cell-based, human; details: Homo sapiens, OVCAR-3, 72 h, read-out: The results of antibiotic drug inhibiting cancer cell lines (cell viability analysis), NIH-OVCAR-3
TOV-21G = assay: Cell viability analysis, ovarian cancer TOV-21G; assay type: cell-based, human; details: Homo sapiens, TOV21G, 72 h, read-out: The results of antibiotic drug inhibiting cancer cell lines (cell viability analysis), TOV-21G
[15] = test system: SAS (Tongue squamous cell carcinoma); assay: Cell viability analysis, tongue cancer SAS; assay type: cell-based, human; details: Homo sapiens, 72 h, read-out: The results of antibiotic drug inhibiting cancer cell lines (cell viability analysis), SAS
U-2OS = assay: Cell viability analysis, osteosarcoma U-2OS; assay type: cell-based, human; details: Homo sapiens, U2OS, 72 h, read-out: The results of antibiotic drug inhibiting cancer cell lines (cell viability analysis), U2OS
[16] = test system: 786-O (Renal adenocarcinoma); assay: Cell viability analysis, renal cancer 786-O; assay type: cell-based, human; details: Homo sapiens, 786-0, 72 h, read-out: The results of antibiotic drug inhibiting cancer cell lines (cell viability analysis), 786-O
[17] = test system: HL-60 (Acute Promyelocytic Leukemia); assay: Cell viability analysis, leukemia HL-60; assay type: cell-based, human; details: Homo sapiens, HL-60, 72 h, read-out: cell viability (survival rate), HL-60, drug 10 μM, 72 hours, WST-1, OD450 nm
[18] = test system: HCT116 (p53+) (Colorectal Carcinoma)

CN(C)[C@@H]1C(O)=C(C(N)=O)C(=O)[C@@]2(O)C(O)=C3C(=O)c4c(O)cccc4[C@@](C)(O)[C@H]3C[C@@H]12 [Tetracycline HCl]
inhibition effect on different cancer cell lines (cancer cell lines): significant inhibition effect
viability at 10 µM ([1]; read-out: The results of antibiotic drug inhibiting cancer cell lines (cell viability analysis), H1650, H1650, repeated experiment): 87.1%
viability at 10 µM ([1]; read-out: cell viability (survival rate), H1650, drug 10 μM, 72 hours, WST-1, OD450 nm): 41.1%
viability at 10 µM ([2]; read-out: The results of antibiotic drug inhibiting cancer cell lines (cell viability analysis), A549, A549, repeated experiment): 99.7%
viability at 10 µM ([2]; read-out: cell viability (survival rate), A549, drug 10 μM, 72 hours, WST-1, OD450 nm): 72.8%
viability at 10 µM ([3]; read-out: The results of antibiotic drug inhibiting cancer cell lines (cell viability analysis), AGS, repeated experiment): 94%
viability at 10 µM ([3]; read-out: cell viability (survival rate), AGS, drug 10 μM, 72 hours, WST-1, OD450 nm): 88.2%
viability at 10 µM ([4]; read-out: The results of antibiotic drug inhibiting cancer cell lines (cell viability analysis), MKN-45, MKN-45, repeated experiment): 133%
viability at 10 µM ([4]; read-out: cell viability (survival rate), MKN-45, drug 10 μM, 72 hours, WST-1, OD450 nm): 55.9%
viability at 10 µM ([5]; read-out: The results of antibiotic drug inhibiting cancer cell lines (cell viability analysis), HepG2, HepG2, repeated experiment): 106%
viability at 10 µM ([5]; read-out: cell viability (survival rate), HepG2, drug 10 μM, 72 hours, WST-1, OD450 nm): 74.1%
viability at 10 µM [6]: 92.2%
viability at 10 µM ([7]; read-out: The results of antibiotic drug inhibiting cancer cell lines (cell viability analysis), LoVo, repeated experiment): 92%
viability at 10 µM ([7]; read-out: cell viability (survival rate), LoVo, drug 10 μM, 72 hours, WST-1, OD450 nm): 71.8%
viability at 10 µM ([8]; read-out: The results of antibiotic drug inhibiting cancer cell lines (cell viability analysis), A375, A375, repeated experiment): 82.8%
viability at 10 µM ([8]; read-out: cell viability (survival rate), A375, drug 10 μM, 72 hours, WST-1, OD450 nm): 74.1%
viability at 10 µM [9]: 100%
viability at 10 µM ([10]; read-out: The results of antibiotic drug inhibiting cancer cell lines (cell viability analysis), HeLa, repeated experiment): 79%
viability at 10 µM ([10]; read-out: cell viability (survival rate), HeLa, drug 10 μM, 72 hours, WST-1, OD450 nm): 96.1%
viability at 10 µM [11]: 103%
viability at 10 µM ([12]; read-out: The results of antibiotic drug inhibiting cancer cell lines (cell viability analysis), PC-3, PC-3, repeated experiment): 104%
viability at 10 µM ([12]; read-out: cell viability (survival rate), PC3, drug 10 μM, 72 hours, WST-1, OD450 nm): 42.9%
viability at 10 µM (T24): 130%
viability at 10 µM ([13]; read-out: The results of antibiotic drug inhibiting cancer cell lines (cell viability analysis), MCF-7, MCF-7, repeated experiment): 93.1%
viability at 10 µM ([13]; read-out: cell viability (survival rate), MCF7, drug 10 μM, 72 hours, WST-1, OD450 nm): 75.9%
viability at 10 µM [14]: 88.1%
viability at 10 µM (BxPC-3): 77.7%
viability at 10 µM (AsPC-1): 96.7%
viability at 10 µM (NIH: OVCAR-3): 104%
viability at 10 µM (TOV-21G): 81.9%
viability at 10 µM [15]: 79.2%
viability at 10 µM (U-2OS): 53.3%
viability at 10 µM [16]: 99.9%
viability at 10 µM [17]: 93.7%
viability [18]: 115% and 114%
